According to patent US9084793B2, “Methods for treating Alzheimer's disease by administering certain synthetic compounds” (BEIJING JOEKAI BIOTECHNOLOGY LLC, priority 2011, dated 2015):
“Also recorded” adds a separate entry of the source.

What was measured:
Aβ42 transgenic flies = experiment: Pavlovian olfactory associative immediate memory in Aβ42 transgenic flies; type: in vivo, Drosophila; settings: Aβ42 transgenic male flies, 7-day drug feeding, 50 μg/ml, tested day 10 after eclosion
Description: Behavioral screening was performed with 2000 synthetic compounds (purchased from TimTec LLC, USA) with structures that are presumably targeted to protein kinase activities (FIG. 1A). Only male flies were selected for 7-day drug treatment and then subjected to behavioral assay at day 10 after eclosion. […] Among them, 9 were tested in double transgenic mice and compounds were indicated to have positive results after 2 months of treatment (6- to 8-month-old) (FIG. 1A-G).

[1] = system: double transgenic mice (APPswe.PSEN1dE9); experiment: Morris water maze in double transgenic AD-model mice; type: in vivo, mouse; settings: two-month treatment (6- to 8-month-old), lavage once daily
[2] = biological target: T1, human EGFR expressed in COS-7 cells (Homo sapiens, UniProt P00533); experiment: Oligomeric Aβ42-induced phosphorylation of EGFR in COS-7 cells transfected with EGFRwt plasmid (Western blot); type: cell-based; settings: 10 μg/ml oligomeric Aβ42, COS-7 cells transfected with EGFRwt plasmid
T1 construct: expressed in transfected cells; host or cells: COS-7
Description: (§1) COS-7 cells were cultured in normal Dulbecco's Modified Eagle Medium (D-MEM) containing 10% fetal bovine serum (Invitrogen) at 37° C. in 5% CO2. Transfection of the cells with an EGFR^WT plasmid was performed following the Lipofectamine 2000 manuals (Invitrogen). After 48 h, cells were washed with fresh medium once and incubated with 10 or 25 μg/ml Aβ42 oligomers for 15 min at 37° C. in 5% CO2. 0.5 μg/ml human EGF (Sigma) was used as a positive control. Cells were then washed with PBS for 3 times and collected.
The preparation procedure was described previously (Dahlgren K, et al., J Biol Chem. 277:32046-53, 2002). Synthetic and recombinant wild type Aβ42 (AnaSpec, Inc.) was initially dissolved to 1 mM in hexafluoroisopropanol (Sigma).
Hexafluoroisopropanol was removed under vacuum in a Speed Vac, and the peptide film was stored at −20° C. For oligomer preparation, the peptide was first resuspended in DMSO to a concentration of 12.5 mg/ml and then diluted with DMEM/F-12 (phenol red-free, Invitrogen) to a final concentration of 500 μg/ml and incubated at 4° C. for 24 h.
(§2) Whole fly head or cells lysates were prepared using a RIPA buffer containing 0.3% SDS, 50 mM Tris-HCl, pH 7.4, 0.5% NP-40, 1% sodium deoxycholate, 150 mM NaCl, 5 mM EDTA, 1 tablet per 50 ml complete protease inhibitor cocktail (Roche Diagnostics). Lysates were diluted in an SDS sample buffer and separated on 10-20% Tris-Tricine gels (Invitrogen), and transferred to nitrocellulose membranes (Invitrogen). The membranes were boiled in PBS for 3 min, blocked with 5% non-fat dry milk and blotted with a first antibody. First antibodies used included mouse anti-Aβ42 (6E10, Covance Research Products), mouse anti-dEGFR (Abcam), rabbit anti-hEGFR (Cell Signaling), mouse anti-hEGFR-p (Cell Signaling) and rabbit anti-Actin (Sigma). Data were analyzed with the ImageJ software (National Institutes of Health).
Behavioral screening was performed with 2000 synthetic compounds (purchased from TimTec LLC, USA) with structures that are presumably targeted to protein kinase activities (FIG. 1A). […]

[3] = biological target: T1, human EGFR expressed in COS-7 cells; experiment: Normal p-EGFR level in EGFRwt-expressing COS-7 cells without oligomeric Aβ42 (Western blot); type: cell-based; settings: 100 μg/ml compound, EGFRwt-expressing COS-7 cells without oligomeric Aβ42 peptides
Description: FIG. 2. […] 100 μg/ml JKF-006, JKF-011 and JKF-027 were used to treat EGFR^wt-expressing COS-7 cells without oligomeric Aβ42 peptides. […] N=3-4.
as §1, §2

In the case of “2-Propenamide, 2-cyano-N-[2-(1H- indol-3-yl)ethyl]-3-[5- (4-morpholinyl)-2- furanyl]- [JKF-027]”, the “Rescue/prevention of Aβ42-induced memory loss (performance index)” value (Aβ42 transgenic flies) is reported as “effective in rescuing memory loss”, the “Rescue of Aβ-induced memory loss (Morris water maze)” value (“Rescue of Aβ-induced memory loss” for short) ([1]; 55 mg/kg/day) is reported as “Rescue of Aβ-induced memory loss; also recorded: effective results in rescuing the memory loss” and the “Effect on oligomeric Aβ42-induced increase of p-EGFR activity” value [2] is reported as “capable of inhibiting induced p-EGFR activity; also recorded: significantly inhibit”. The “Effect on normal (endogenous) p-EGFR level” value [3] was “None of the compounds changed the p-EGFR level; also recorded: incapable of affecting the endogenous p-EGFR level”.

`N#C/C(=C/c1ccc(-c2cc(C(=O)O)ccc2Cl)o1)C(=O)Nc1ccc(F)cc1` [JKF-006, Benzoic acid, 4-chloro-3-[5-[2-cyano-3-[(4-fluorophenyl)amino]-3-oxo-1-propen-1-yl]-2-furanyl]-] was tested, and the “Rescue/prevention of Aβ42-induced memory loss (performance index)” value (Aβ42 transgenic flies) was “effective in rescuing memory loss”, the “Rescue of Aβ-induced memory loss” value ([1]; 58 mg/kg/day) was “Rescue of Aβ-induced memory loss; also recorded: effective results in rescuing the memory loss” and the “Effect on oligomeric Aβ42-induced increase of p-EGFR activity” value [2] was “capable of inhibiting induced p-EGFR activity; also recorded: significantly inhibit”. For the same compound, the “Effect on normal (endogenous) p-EGFR level” value [3] was “None of the compounds changed the p-EGFR level; also recorded: incapable of affecting the endogenous p-EGFR level”.

In the case of `O=C1CNCCN1` [JKF-011, Piperazin-2-one], the “Rescue/prevention of Aβ42-induced memory loss (performance index)” value (Aβ42 transgenic flies) is reported as “effective in rescuing memory loss”, the “Rescue of Aβ-induced memory loss” value ([1]; 14 mg/kg/day) is reported as “Rescue of Aβ-induced memory loss; also recorded: effective results in rescuing the memory loss” and the “Effect on oligomeric Aβ42-induced increase of p-EGFR activity” value [2] is reported as “capable of inhibiting induced p-EGFR activity; also recorded: significantly inhibit”. The “Effect on normal (endogenous) p-EGFR level” value [3] was “None of the compounds changed the p-EGFR level; also recorded: incapable of affecting the endogenous p-EGFR level”.
